# In patent publication US11647750B2, “Active compound combinations having insecticidal/acaricidal properties” (Bayer Aktiengesellschaft, priority 2017, dated 2023):
# Where two headings read alike, the source gives them in different places.
# Tests used:
# Format in all cases: in vivo
# [1] = system: Tetranychus urticae; assay: Tetranychus urticae spray test, OP-resistant (French bean leaf disks)
# Experimental: (§1) • The expected efficacy of a given combination of two compounds is calculated as follows (see Colby, S. R., “Calculating Synergistic and antagonistic Responses of Herbicide Combinations”, Weeds 15, pp. 20-22, 1967): • If • X is the efficacy expressed in % mortality of the untreated control for test compound A at a concentration of m ppm respectively m g/ha, • Y is the efficacy expressed in % mortality of the untreated control for test compound B at a concentration of n ppm respectively n g/ha, • E is the efficacy expressed in % mortality of the untreated control using the mixture of A and B at m and n ppm respectively m and n g/ha, • then is
# (§2) [formula] • If the observed insecticidal efficacy of the combination is higher than the one calculated as “E”, then the combination of the two compounds is more than additive, i.e. there is a synergistic effect.
# Tetranychus urticae—Spray Test OP-Resistant
# (§3) • Solvent: 78.0 parts by weight acetone 1.5 parts by weight dimethylformamide • Emulsifier: alkylarylpolyglycol ether
# (§4) To produce a suitable preparation of active compound, 1 part by weight of active compound is mixed with the stated amount of solvents and is diluted with water, containing an emulsifier concentration of 1000 ppm, to the desired concentration. To produce a suitable preparation of a spore suspension the spores are diluted with emulsifier containing water to the desired concentration. Further test concentrations are prepared by dilution with emulsifier containing water.
# French bean (Phaseolus vulgaris) leaf disks infected with all instars of the two spotted spidermite (Tetranychus urticae), are sprayed with a preparation of the active ingredient of the desired concentration.
# After the specified period of time, mortality in % is determined. 100% means all spider mites have been killed and 0% means none of the spider mites have been killed. The mortality values determined thus are recalculated using the Colby-formula (see above).
# [2] = system: Tetranychus urticae; assay: Tetranychus urticae spray test; OP-resistant (bean plants); conditions: mortality
# Experimental: as §1, §2
# Tetranychus urticae Spray Test; OP-Resistant
# Solvent: 7 parts by weight of dimethylformamide
# Emulsifier: alkylaryl polyglycol ether
# To produce a suitable preparation of active compound, 1 part by weight of active compound is mixed with the stated amount of solvent and is diluted with water, containing an emulsifier concentration of 1000 ppm, to the desired concentration. Further test concentrations are prepared by dilution with emulsifier containing water.
# Bean plants (Phaseolus vulgaris) which are heavily infested with all stages of the two-spotted spider mite (Tetranychus urticae) are treated by being sprayed with the preparation of the active compound of the desired concentration.
# After the specified period of time mortality in % is determined. 100% means all the spider mites have been killed and 0% means none of the spider mites have been killed. The mortality values determined thus are recalculated using the Colby-formula (see above).
# [3] = system: Meloidogyne incognita; assay: Meloidogyne incognita test (gall formation on salad roots); conditions: nematicidal activity on the basis of gall formation
# Experimental: as §1, §2
# Meloidogyne incognita—Test
# Solvent: 125.0 parts by weight of acetone
# To produce a suitable preparation of active compound, 1 part by weight of active compound is mixed with the stated amount of solvent, and the concentrate is diluted with water to the desired concentration. To produce a suitable preparation of a spore suspension the spores are diluted with water to the desired concentration.
# Vessels are filled with sand, a solution of the active ingredient, a suspension containing eggs and larvae of the southern root-knot nematode (Meloidogyne incognita) and salad seeds. The salad seeds germinate and the seedlings grow. Galls develop in the roots.
# After the specified period of time nematicidal activity is determined on the basis of the percentage of gall formation. 100% means no galls were found and 0% means the number of galls found on the roots of the treated plants was equal to that in untreated control plants.
# [4] = system: Myzus persicae; assay: Myzus persicae spray test (Chinese cabbage leaf disks); conditions: mortality
# Experimental: as §1, §2
# Myzus persicae Spray Test
# as §3, §4
# Chinese cabbage (Brassica pekinensis) leaf disks infected with all instars of the green peach aphid (Myzus persicae), are sprayed with a preparation of the active ingredient of the desired concentration.
# After the specified period of time, mortality in % is determined. 100% means all aphids have been killed; 0% means none of the aphids have been killed. The mortality values determined thus are recalculated using the Colby-formula (see above).
# [5] = Tetranychus urticae, foliar, 144 h, read-out: Efficacy in % after 6 days
# [6] = Tetranychus urticae, foliar, 144 h, 0.6 g ai/ha, mortality, 6 days, read-out: Efficacy in % after 6 days
# [7] = Tetranychus urticae, foliar, 144 h, 0.5 g ai/ha, mortality, 6 days, read-out: Efficacy in % after 6 days
compound,measurement,setting,value
"Cc1cc(C)c(C2=C(OC(=O)CC(C)(C)C)C3(CCCC3)OC2=O)c(C)c1 [Spiromesifen, 3-mesityl-2-oxo-1-oxaspiro[4.4]non-3-en-4-yl 3,3-dimethylbutyrate]",Efficacy in % after 2 days,"[1]; 0.05 g ai/ha, mortality",0%
same,pest or weed control at 0.05 g/ha,[1]; [5],0%
same,pest or weed control at 0.6 g/ha,[1]; [5],0%
abamectin,Efficacy in % after 2 days,"[1]; 0.00125 g ai/ha, mortality",0%
same,Efficacy in % after 6 days,"[1]; 0.015 g ai/ha, mortality, 6 days",70%
same,Efficacy in % after 6 days,"[1]; 0.03 g ai/ha, mortality, 6 days",70%
same,Efficacy in % after 3 days,[2]; 0.01 ppm,0%
milbemectin,Efficacy in % after 6 days,"[1]; 0.75 g ai/ha, mortality, 6 days",0%
same,Efficacy in % after 6 days,"[1]; 1.5 g ai/ha, mortality, 6 days",0%
"CCOC(=O)OC1=C(c2cc(C)ccc2C)C(=O)N[C@]12CC[C@@H](OC)CC2 [Spirotetramat, cis-4-(ethoxycarbonyloxy)-8-methoxy-3-(2,5-xylyl)-1-azaspiro[4.5]dec-3-en-2-one]",Efficacy in % after 2 days,"[1]; 0.05 g ai/ha, mortality",0%
same,pest or weed control at 0.05 g/ha,[1]; [5],0%
same,Efficacy in % after 7 days,[2]; 2 ppm,40%
same,Efficacy in % after 14 days,[3]; 30 ppm,0%
same,Efficacy in % after 14 days,[3]; 60 ppm,0%
"COC(c1ccc(N(C(=O)c2c(C)nn(C)c2C)C(=O)C(C)C)cc1CC(C)C)(C(F)(F)F)C(F)(F)F [Pyflubumide, 3′-isobutyl-N-isobutyryl-1,3,5-trimethyl-4′-[2,2,2-trifluoro-1-methoxy-1-(trifluoromethyl)ethyl]pyrazole-4-carboxanilide]",Efficacy in % after 2 days,"[1]; 0.0125 g ai/ha, mortality",0%
same,pest or weed control at 0.0125 g/ha,"[1]; Tetranychus urticae, foliar, 144 h, 0.0125 g ai/ha, mortality, 6 days, read-out: Efficacy in % after 6 days",0%
same,pest or weed control at 0.6 g/ha,[1]; [6],70%
Cc1cc(F)c(N=C2SCC(=O)N2CC(F)(F)F)cc1[S+]([O-])CC(F)(F)F (centres unmarked) [Cpd of formula (I)],Efficacy in % after 2 days,"[1]; 0.125 g ai/ha, mortality",0%
same,Efficacy in % after 2 days,"[1]; 0.5 g ai/ha, mortality",0%
same,pest or weed control at 0.125 g/ha,"[1]; Tetranychus urticae, foliar, 144 h, 0.125 g ai/ha, mortality, 6 days, read-out: Efficacy in % after 6 days",0%
same,pest or weed control at 0.3 g/ha,"[1]; Tetranychus urticae, foliar, 144 h, 0.3 g ai/ha, mortality, 6 days, read-out: Efficacy in % after 6 days",0%
same,pest or weed control at 0.5 g/ha,[1]; [7],0%
same,pest or weed control at 0.6 g/ha,[1]; [6],0%
same,Efficacy in % after 3 days,[2]; 0.4 ppm,0%
same,Efficacy in % after 7 days,[2]; 0.8 ppm,30%
same,Efficacy in % after 14 days,[3]; 1 ppm,0%
same,Efficacy in % after 14 days,[3]; 2 ppm,70%
same,Efficacy in % after 6 days,[4]; 2 g ai/ha,0%
same,Efficacy in % after 6 days,[4]; 8 g ai/ha,0%
spinosad,Efficacy in % after 2 days,"[1]; 0.03125 g ai/ha, mortality",0%
same,Efficacy in % after 6 days,"[1]; 0.03125 g ai/ha, mortality, 6 days",0%
same,Efficacy in % after 6 days,"[1]; 0.125 g ai/ha, mortality, 6 days",0%
Cc1cc(Cl)cc(C)c1C1=C(O)C2(CCC3(CC2)OCCO3)NC1=O [Cpd of formula (IIa)],Efficacy in % after 2 days,"[1]; 1 g ai/ha, mortality",0%
same,pest or weed control at 1 g/ha,"[1]; Tetranychus urticae, foliar, 144 h, 1 g ai/ha, mortality, 6 days, read-out: Efficacy in % after 6 days",0%
same,Efficacy in % after 6 days,[4]; 16 g ai/ha,0%
"COCCOC(=O)C(C#N)(C(=O)c1ccccc1C(F)(F)F)c1ccc(C(C)(C)C)cc1 (racemic) [Cyflumetofen, 2-methoxyethyl (RS)-2-(4-tert-butylphenyl)-2-cyano-3-oxo-3-(α,α,α-trifluoro-o-tolyl)propionate]",Efficacy in % after 2 days,"[1]; 0.5 g ai/ha, mortality",0%
same,pest or weed control at 0.5 g/ha,[1]; [5],0%
"Cc1nn(C)c(/C(OC(=O)C(C)(C)C)=C(\C#N)c2ccc(C(C)(C)C)cc2)c1C [Cyenopyrafen, (E)-2-(4-tert-butylphenyl)-2-cyano-1-(1,3,4-trimethylpyrazol-5-yl)vinyl 2,2-dimethylpropionate]",pest or weed control at 0.125 g/ha,[1]; [5],0%
same,Efficacy in % after 6 days,[4]; 0.5 g ai/ha,0%
same,Efficacy in % after 6 days,[4]; 2 g ai/ha,0%
Cc1ccc(-c2ccc(F)cc2)c(C)c1C1=C(O)C2(CCOCC2)NC1=O [Cpd of formula (IIb)],Efficacy in % after 2 days,"[1]; 0.5 g ai/ha, mortality",0%
same,pest or weed control at 0.5 g/ha,[1]; [7],0%
emamectin benzoate [Emamectin-benzoate],Efficacy in % after 2 days,"[1]; 0.003125 g ai/ha, mortality",0%
same,Efficacy in % after 6 days,"[1]; 0.003125 g ai/ha, mortality, 6 days",0%
same,Efficacy in % after 2 days,"[1]; 0.0125 g ai/ha, mortality",0%
same,Efficacy in % after 6 days,"[1]; 0.0125 g ai/ha, mortality, 6 days",0%
same,Efficacy in % after 6 days,"[1]; 0.15 g ai/ha, mortality, 6 days",0%
